The target in this assay is T1, Met receptor (EGFR/Met chimeric cells, EMR) (Homo sapiens, UniProt P08581).
T1 construct: expressed in transfected cells; the other entry of the earlier key: EGFR (P00533, Epidermal growth factor receptor)
The assay is described as follows: Met Autophosphorylation Assay. In kind it is biochemical. In outline: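 Transiently transfected EGFR/Met chimeric (EMR) cells were lysed in HNTG with 1 mM PMSF. Met was captured on plates coated with goat anti-rabbit IgG, then rabbit anti-Met (C-28), using 90 μg lysate/100 μl for 60 min at room temperature. Phosphotyrosine was read by ELISA.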

26 compounds from patent US20020026053A1, “Novel 3-(substituted) -2- indolinones compounds and use thereof as inhibitors of protein kinase activity” (priority 1997, published 2002) can be followed below.

T1 sequence (P08581 with tags, fused parts or gaps): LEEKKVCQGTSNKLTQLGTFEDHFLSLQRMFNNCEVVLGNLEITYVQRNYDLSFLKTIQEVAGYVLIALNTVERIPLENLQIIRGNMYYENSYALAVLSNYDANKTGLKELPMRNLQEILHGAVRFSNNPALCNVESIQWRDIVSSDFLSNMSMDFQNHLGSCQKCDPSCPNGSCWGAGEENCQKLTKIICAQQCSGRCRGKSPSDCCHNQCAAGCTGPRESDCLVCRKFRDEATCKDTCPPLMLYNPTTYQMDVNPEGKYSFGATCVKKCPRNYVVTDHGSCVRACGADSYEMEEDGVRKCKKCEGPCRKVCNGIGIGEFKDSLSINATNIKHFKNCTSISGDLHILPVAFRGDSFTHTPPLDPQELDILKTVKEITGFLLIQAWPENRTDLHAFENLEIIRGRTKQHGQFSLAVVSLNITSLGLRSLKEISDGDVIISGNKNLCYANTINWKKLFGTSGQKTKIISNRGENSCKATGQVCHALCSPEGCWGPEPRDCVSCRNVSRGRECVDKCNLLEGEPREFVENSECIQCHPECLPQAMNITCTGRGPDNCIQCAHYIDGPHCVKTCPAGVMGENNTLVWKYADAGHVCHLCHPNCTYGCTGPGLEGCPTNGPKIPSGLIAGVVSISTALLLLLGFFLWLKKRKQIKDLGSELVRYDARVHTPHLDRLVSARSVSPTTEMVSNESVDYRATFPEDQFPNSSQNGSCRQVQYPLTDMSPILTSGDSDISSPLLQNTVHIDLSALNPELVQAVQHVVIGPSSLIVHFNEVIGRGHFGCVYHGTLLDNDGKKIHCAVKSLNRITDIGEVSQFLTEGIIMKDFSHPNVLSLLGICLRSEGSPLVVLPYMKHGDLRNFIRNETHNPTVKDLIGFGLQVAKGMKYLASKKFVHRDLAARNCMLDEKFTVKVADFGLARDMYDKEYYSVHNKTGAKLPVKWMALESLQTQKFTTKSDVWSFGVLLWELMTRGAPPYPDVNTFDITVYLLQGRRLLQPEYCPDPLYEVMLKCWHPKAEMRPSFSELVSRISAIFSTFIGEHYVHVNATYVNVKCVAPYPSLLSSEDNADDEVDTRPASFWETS

For `CNS(=O)(=O)c1ccc2c(c1)C(=Cc1ccc(-c3ccccc3)cc1)C(=O)N2` [10735/D11], the “Met Kinase % Inhibition (P.130)” value was 18.5%.
`Cc1ccccc1C=C1C(=O)Nc2ccc(S(=O)(=O)Nc3ccc(C(F)(F)F)cc3)cc21` [10735/E02]: the “Met Kinase % Inhibition (P.130)” value amounted to 13.2%.
For `O=C1Nc2ccc(S(=O)(=O)Nc3ccc(C(F)(F)F)cc3)cc2C1=Cc1ccc(F)c(F)c1` [10735/E03] the value was 71.8%; for `O=C1Nc2ccc(S(=O)(=O)Nc3ccc(C(F)(F)F)cc3)cc2C1=Cc1cc(F)cc(F)c1` [10735/E04], 85.2%; for `O=C1Nc2ccc(S(=O)(=O)Nc3ccc(C(F)(F)F)cc3)cc2C1=Cc1cccc(C(F)(F)F)c1` [10735/E05], 74.8%.
The figure for `O=C1Nc2ccc(S(=O)(=O)Nc3ccc(C(F)(F)F)cc3)cc2C1=Cc1cc(C(F)(F)F)cc(C(F)(F)F)c1` [10735/E06] is 33.3%.
As to `N#Cc1ccccc1C=C1C(=O)Nc2ccc(S(=O)(=O)Nc3ccc(C(F)(F)F)cc3)cc21` [10735/E07], the “Met Kinase % Inhibition (P.130)” value is on record as 64.5%.
Consider `O=C1Nc2ccc(S(=O)(=O)Nc3ccc(C(F)(F)F)cc3)cc2C1=Cc1c(F)cccc1F` [10735/E08], for which the “Met Kinase % Inhibition (P.130)” value stood at 35.7%.
As for `O=C1Nc2ccc(S(=O)(=O)Nc3ccc(C(F)(F)F)cc3)cc2C1=Cc1cccc2ccccc12` [10735/E09], the “Met Kinase % Inhibition (P.130)” value is listed as 11.3%.
Consider `O=C1Nc2ccc(S(=O)(=O)Nc3ccc(C(F)(F)F)cc3)cc2C1=Cc1ccc(Cl)cc1Cl` [10735/E10], for which the “Met Kinase % Inhibition (P.130)” value is reported as 41.8%.
Regarding `O=C1Nc2ccc(S(=O)(=O)Nc3ccc(C(F)(F)F)cc3)cc2C1=Cc1ccc(-c2ccccc2)cc1` [10735/E11], the “Met Kinase % Inhibition (P.130)” value is 7.2%.
The figure for `Cc1ccccc1C=C1C(=O)Nc2ccc(S(=O)(=O)N3CCOCC3)cc21` [10735/F02] is 31.2%; for `O=C1Nc2ccc(S(=O)(=O)N3CCOCC3)cc2C1=Cc1ccc(F)c(F)c1` [10735/F03] it is 36.1%; for `O=C1Nc2ccc(S(=O)(=O)N3CCOCC3)cc2C1=Cc1cc(F)cc(F)c1` [10735/F04] it is 41.6%.
`O=C1Nc2ccc(S(=O)(=O)N3CCOCC3)cc2C1=Cc1cccc(C(F)(F)F)c1` [10735/F05]: the “Met Kinase % Inhibition (P.130)” value is reported as 26.4%.
As to `O=C1Nc2ccc(S(=O)(=O)N3CCOCC3)cc2C1=Cc1cc(C(F)(F)F)cc(C(F)(F)F)c1` [10735/F06], the “Met Kinase % Inhibition (P.130)” value is listed as 39.5%.
For `N#Cc1ccccc1C=C1C(=O)Nc2ccc(S(=O)(=O)N3CCOCC3)cc21` [10735/F07] the value was 39.7%.
As to `O=C1Nc2ccc(S(=O)(=O)N3CCOCC3)cc2C1=Cc1c(F)cccc1F` [10735/F08], the “Met Kinase % Inhibition (P.130)” value stood at 18.5%.
The figure for `O=C1Nc2ccc(S(=O)(=O)N3CCOCC3)cc2C1=Cc1cccc2ccccc12` [10735/F09] is 7.0%.
For `O=C1Nc2ccc(S(=O)(=O)N3CCOCC3)cc2C1=Cc1ccc(Cl)cc1Cl` [10735/F10] the value was 13.0%.
The figure for `O=C1Nc2ccc(S(=O)(=O)N3CCOCC3)cc2C1=Cc1ccc(-c2ccccc2)cc1` [10735/F11] is 16.6%; for `Cc1ccccc1C=C1C(=O)Nc2ccc(CCCl)cc21` [10735/G02] it is 26.0%.
Take `O=C1Nc2ccc(CCCl)cc2C1=Cc1ccc(F)c(F)c1` [10735/G03]: the “Met Kinase % Inhibition (P.130)” value is given as 24.3%.
For `O=C1Nc2ccc(CCCl)cc2C1=Cc1cc(F)cc(F)c1` [10735/G04] the value was 28.8%; for `O=C1Nc2ccc(CCCl)cc2C1=Cc1cccc(C(F)(F)F)c1` [10735/G05], 22.2%.
The figure for `O=C1Nc2ccc(CCCl)cc2C1=Cc1cc(C(F)(F)F)cc(C(F)(F)F)c1` [10735/G06] is 36.1%.
